Source: PubChem BioAssay AID330 (DTP/NCI, 2004)
Where “and” joins values, the source holds several entries; their conditions need not be identical. Equal entries are not always repeated. Inconclusive results and toxic doses are left out. Rule for the calls: active = survival T/C of 150% or more; inactive = T/C below 125% in these data.

Tested on: P388 leukemia ip, CD2F1 mice, survival T/C
Experiment: NCI In Vivo Anticancer Drug Screen. Data for tumor model P388 Leukemia (intraperitoneal) in CD2F1 (CDF1) mice
Conditions: endpoint: median survival time, higher = longer survival
In short: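 Mice carrying the transplanted tumor received test compound or vehicle. Survival was recorded in each group, and the value is the treated-group measurement divided by that of the vehicle-treated control group.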

[1] = dose: 50.0 mg/kg/injection, schedule: Q01DX005 (ip), vehicle: Klucel (hydroxypropylcellulose) (HPC)
[2] = dose: 100.0 mg/kg/injection, schedule: Q01DX005 (ip), vehicle: Klucel (hydroxypropylcellulose) (HPC)
[3] = dose: 200.0 mg/kg/injection, schedule: Q01DX005 (ip), vehicle: Klucel (hydroxypropylcellulose) (HPC)
[4] = dose: 60.0 mg/kg/injection, schedule: Q01DX005 (ip), vehicle: saline with Tween-80
[5] = dose: 50.0 mg/kg/injection, schedule: Q01DX005 (ip), vehicle: saline with Tween-80
[6] = dose: 100.0 mg/kg/injection, schedule: Q01DX005 (ip), vehicle: saline with Tween-80
[7] = dose: 200.0 mg/kg/injection, schedule: Q01DX005 (ip), vehicle: saline with Tween-80
[8] = dose: 120.0 mg/kg/injection, schedule: Q01DX005 (ip), vehicle: saline with Tween-80
[9] = dose: 240.0 mg/kg/injection, schedule: Q01DX005 (ip), vehicle: saline with Tween-80
[10] = dose: 50.0 mg/kg/injection, schedule: Q01DX009 (ip), vehicle: saline
[11] = dose: 100.0 mg/kg/injection, schedule: Q01DX009 (ip), vehicle: saline
[12] = dose: 200.0 mg/kg/injection, schedule: Q01DX009 (ip), vehicle: saline
[13] = dose: 60.0 mg/kg/injection, schedule: Q01DX005 (ip), vehicle: saline
[14] = dose: 100.0 mg/kg/injection, schedule: Q04DX003 (ip), vehicle: saline with Tween-80
[15] = dose: 200.0 mg/kg/injection, schedule: Q04DX003 (ip), vehicle: saline with Tween-80
[16] = dose: 400.0 mg/kg/injection, schedule: Q04DX003 (ip), vehicle: saline with Tween-80
[17] = dose: 100.0 mg/kg/injection, schedule: Q01DX009 (ip), vehicle: saline with Tween-80
[18] = dose: 120.0 mg/kg/injection, schedule: Q01DX005 (ip), vehicle: saline
[19] = dose: 100.0 mg/kg/injection, schedule: Q04DX002 (ip), vehicle: Klucel (hydroxypropylcellulose) (HPC)
[20] = dose: 200.0 mg/kg/injection, schedule: Q04DX002 (ip), vehicle: Klucel (hydroxypropylcellulose) (HPC)
[21] = dose: 400.0 mg/kg/injection, schedule: Q04DX002 (ip), vehicle: Klucel (hydroxypropylcellulose) (HPC)
[22] = dose: 25.0 mg/kg/injection, schedule: Q01DX005 (ip), vehicle: Klucel (hydroxypropylcellulose) (HPC)

Measured: T/C

COC(=O)C1(C)C(=O)NC(=O)CC1C (stereo unspecified)
inactive: [1] 105 % of control | [2] 101 % of control | [3] 87 % of control

Fc1ccccc1C(Nc1nncs1)Nc1nncs1
inactive: dose: 15.0 mg/kg/injection, schedule: Q01DX005 (ip), vehicle: saline with Tween-80 95 % of control | dose: 30.0 mg/kg/injection, schedule: Q01DX005 (ip), vehicle: saline with Tween-80 94 % of control | [4] 102 % of control and 104 % of control

CCCCCCCCCCCCN(CCCCCCCCCCCC)CC(O)c1cc2c(c3ccccc13)CCCC2 (stereo unspecified)
inactive: [5] 101 % of control | [6] 97 % of control | [7] 101 % of control

O=c1[nH]c2ccccc2c(=O)n1-c1ccco1
inactive: dose: 100.0 mg/kg/injection, schedule: Q04DX002 (ip), vehicle: saline 100 % of control | dose: 200.0 mg/kg/injection, schedule: Q04DX002 (ip), vehicle: saline 102 % of control | dose: 400.0 mg/kg/injection, schedule: Q04DX002 (ip), vehicle: saline 101 % of control

C/C(=C1/SC(=S)NC1=O)c1ccc(Cl)c(O)c1
inactive: [4] 99 % of control | [8] 97 % of control | [9] 88 % of control

CSC1SCC2C(=O)N(C)C(C(C)C)C(=O)OCC(NC(=O)c3cnc4ccccc4n3)C(=O)NC(C)C(=O)N(C)C1C(=O)N(C)C(C(C)C)C(=O)OCC(NC(=O)c1cnc3ccccc3n1)C(=O)NC(C)C(=O)N2C (stereo unspecified)
inactive: dose: 0.5 micrograms/kg/injection, schedule: Q01DX010 (ip), vehicle: saline 100 % of control | dose: 30.0 micrograms/kg/injection, schedule: Q01DX009 (oral), vehicle: saline with Tween-80 97 % of control | dose: 60.0 micrograms/kg/injection, schedule: Q01DX009 (oral), vehicle: saline with Tween-80 101 % of control | dose: 120.0 micrograms/kg/injection, schedule: Q01DX009 (oral), vehicle: saline with Tween-80 96 % of control | dose: 240.0 micrograms/kg/injection, schedule: Q01DX009 (ip), vehicle: saline with Tween-80 117 % of control | dose: 240.0 micrograms/kg/injection, schedule: Q01DX009 (oral), vehicle: saline with Tween-80 99 % of control | dose: 480.0 micrograms/kg/injection, schedule: Q01DX009 (oral), vehicle: saline with Tween-80 96 % of control
active: dose: 60.0 micrograms/kg/injection, schedule: Q01DX009 (ip), vehicle: saline with Tween-80 205 % of control

CC1N=C(SCc2ccc(Cl)cc2)N2C(C)N=C(SCc3ccc(Cl)cc3)N12 (stereo unspecified)
inactive: [10] 112 % of control | [11] 110 % of control | [12] 104 % of control

CCCCC(=S)SSC(C)(C)C
inactive: dose: 12.5 mg/kg/injection, schedule: Q01DX005 (ip), vehicle: saline with Tween-80 108 % of control | dose: 25.0 mg/kg/injection, schedule: Q01DX005 (ip), vehicle: saline with Tween-80 115 % of control | [5] 100 % of control and 114 % of control

C/C(=N\N=C(N)N)c1c(C)nn(C(=N)N)c1C
inactive: dose: 15.0 mg/kg/injection, schedule: Q01DX005 (ip), vehicle: saline 99 % of control | dose: 30.0 mg/kg/injection, schedule: Q01DX005 (ip), vehicle: saline 98 % of control | [13] 99 % of control and 111 % of control

CCCCCCCCCCCCCCCCCCCC[N+]1(CC)CCOCC1
inactive: [14] 98 % of control | [15] 99 % of control | [16] 96 % of control

CC(NC(=O)CCl)C(=O)O (stereo unspecified)
inactive: dose: 25.0 mg/kg/injection, schedule: Q01DX009 (ip), vehicle: saline with Tween-80 105 % of control and 109 % of control | dose: 50.0 mg/kg/injection, schedule: Q01DX009 (ip), vehicle: saline with Tween-80 101 % of control and 103 % of control | [10] 101 % of control | [17] 105 % of control and 95 % of control | [11] 105 % of control | dose: 200.0 mg/kg/injection, schedule: Q01DX009 (ip), vehicle: saline with Tween-80 103 % of control | [12] 101 % of control

CN1C(C)(C)CC(O)CC1(C)C
inactive: [13] 102 % of control | [18] 102 % of control

Clc1ccc(-c2nnc(-c3cccc(Cl)n3)o2)c(Cl)c1
inactive: dose: 43.8 mg/kg/injection, schedule: Q01DX005 (ip), vehicle: saline with Tween-80 99 % of control | dose: 87.5 mg/kg/injection, schedule: Q01DX005 (ip), vehicle: saline with Tween-80 87 % of control

CC1=CC(Cc2ccccc2)N(C)CC1C (stereo unspecified)
inactive: [4] 97 % of control | [8] 91 % of control

C(/C=C/c1ccccc1)=C1SCCCS1
inactive: [14] 94 % of control | [15] 103 % of control | [16] 90 % of control

C=CCNc1nc2c(s1)c1c(O)c3c(O)c(C)c4c(c32)C(=O)C(C)(O/C=C\C(OC)C(C)C(OC(C)=O)C(C)C(O)C(C)C(O)C(C)/C=C/C=C(/C)C(=O)N1)O4 (stereo unspecified)
inactive: dose: 25.0 mg/kg/injection, schedule: Q01DX009 (ip), vehicle: Klucel (hydroxypropylcellulose) (HPC) 98 % of control | dose: 50.0 mg/kg/injection, schedule: Q01DX009 (ip), vehicle: Klucel (hydroxypropylcellulose) (HPC) 100 % of control | dose: 100.0 mg/kg/injection, schedule: Q01DX009 (ip), vehicle: Klucel (hydroxypropylcellulose) (HPC) 100 % of control | dose: 200.0 mg/kg/injection, schedule: Q01DX009 (ip), vehicle: Klucel (hydroxypropylcellulose) (HPC) 94 % of control

Nc1cc(S(=O)(=O)O)c(Br)c(Br)c1Br
inactive: [10] 94 % of control | [11] 95 % of control | [12] 90 % of control

Cc1c(-c2ccccc2)ccnc1/C=N/NC(=S)NCCc1ccccc1
inactive: [17] 101 % of control and 95 % of control

CC1CCC(C(C)C)C(NC(=O)c2ccccn2)C1 (stereo unspecified)
inactive: [19] 101 % of control | [20] 90 % of control | [21] 97 % of control

O=C(C(Br)C(Br)c1ccccc1)C(Br)C(Br)c1ccccc1 (stereo unspecified)
inactive: dose: 100.0 mg/kg/injection, schedule: Q04DX003 (ip), vehicle: saline sonified 104 % of control | dose: 200.0 mg/kg/injection, schedule: Q04DX003 (ip), vehicle: saline sonified 100 % of control | dose: 400.0 mg/kg/injection, schedule: Q04DX003 (ip), vehicle: saline sonified 95 % of control

CCC12OC(COc3ccccc3)CN1CCN2c1ccccc1 (stereo unspecified)
inactive: [4] 97 % of control | [8] 98 % of control

COc1ccc(CCN2C(=O)CCC3=C2CCC3=O)cc1OC
inactive: [22] 100 % of control | [1] 98 % of control | [2] 100 % of control | [3] 106 % of control

CCO/C=C1/N=C(COc2ccc(Cl)cc2C)OC1=O
inactive: [4] 101 % of control | [8] 108 % of control | [9] 95 % of control

COc1ccc(C(C)c2cc3c(cc2OC)OCO3)cc1C (stereo unspecified)
inactive: [22] 104 % of control and 105 % of control | [1] 100 % of control and 109 % of control and 120 % of control | [2] 98 % of control and 105 % of control and 111 % of control | [3] 100 % of control and 110 % of control and 120 % of control | dose: 400.0 mg/kg/injection, schedule: Q01DX005 (ip), vehicle: Klucel (hydroxypropylcellulose) (HPC) 100 % of control

O=C1NC(=O)C2(CCCc3ccccc32)N1 (stereo unspecified)
inactive: [1] 101 % of control | [5] 97 % of control | [2] 104 % of control | [6] 94 % of control | [3] 104 % of control | [7] 94 % of control

COc1cc(Cc2n[nH]c(=S)[nH]c2=O)cc(OC)c1OC
inactive: [19] 110 % of control | [20] 98 % of control | [21] 100 % of control

CC(C)=CC(O)C/C(C)=C/CC/C(C)=C/CCC1(C)C(CCCO)/C(=C(/C)C=O)CCC1(C)O (stereo unspecified)
inactive: [22] 106 % of control | [1] 106 % of control | [2] 119 % of control | [3] 116 % of control

C[Si](C)(C)/N=C(/O[Si](C)(C)C)C(F)(F)F
inactive: [13] 101 % of control | [18] 111 % of control | dose: 240.0 mg/kg/injection, schedule: Q01DX005 (ip), vehicle: saline 108 % of control

Nc1ncnc2c1nc(F)n2C1OC(CO)C(O)C1O (stereo unspecified)
inactive: dose: 6.25 mg/kg/injection, schedule: Q01DX005 (ip), vehicle: saline 107 % of control | dose: 12.5 mg/kg/injection, schedule: Q01DX005 (ip), vehicle: saline 108 % of control | dose: 25.0 mg/kg/injection, schedule: Q01DX005 (ip), vehicle: saline 108 % of control

CC(=O)C1C(=O)C(=O)N(c2ccc(S(N)(=O)=O)cc2)C1=O (stereo unspecified)
inactive: [4] 103 % of control | [8] 104 % of control | [9] 118 % of control
